In one assay the target is T1, Mouse AhR (Mus musculus, UniProt P30561).
T1 sequence (P30561 1-848): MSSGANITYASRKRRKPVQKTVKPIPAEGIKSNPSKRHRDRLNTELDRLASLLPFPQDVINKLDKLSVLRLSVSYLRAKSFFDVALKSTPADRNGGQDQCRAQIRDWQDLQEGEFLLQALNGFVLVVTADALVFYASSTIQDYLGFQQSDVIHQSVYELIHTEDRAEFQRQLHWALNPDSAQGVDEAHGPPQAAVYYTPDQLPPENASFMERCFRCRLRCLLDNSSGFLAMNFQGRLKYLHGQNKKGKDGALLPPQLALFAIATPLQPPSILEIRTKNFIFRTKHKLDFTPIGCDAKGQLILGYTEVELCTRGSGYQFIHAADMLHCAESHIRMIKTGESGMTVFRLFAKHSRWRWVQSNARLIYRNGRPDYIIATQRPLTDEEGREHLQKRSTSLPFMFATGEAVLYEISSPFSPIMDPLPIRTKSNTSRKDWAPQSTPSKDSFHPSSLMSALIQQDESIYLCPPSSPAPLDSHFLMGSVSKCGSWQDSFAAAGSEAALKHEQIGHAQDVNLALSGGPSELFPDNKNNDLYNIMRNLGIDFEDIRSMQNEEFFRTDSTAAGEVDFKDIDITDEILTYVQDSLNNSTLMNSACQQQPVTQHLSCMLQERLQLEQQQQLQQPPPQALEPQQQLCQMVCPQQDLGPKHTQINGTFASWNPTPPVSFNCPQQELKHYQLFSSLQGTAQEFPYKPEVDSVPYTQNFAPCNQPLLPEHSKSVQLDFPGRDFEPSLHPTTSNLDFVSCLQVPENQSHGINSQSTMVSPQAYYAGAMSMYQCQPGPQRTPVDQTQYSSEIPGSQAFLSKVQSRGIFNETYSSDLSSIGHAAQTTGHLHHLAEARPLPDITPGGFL
Kind of assay: Transactivation assay in mouse cell line (in vitro assay 2: antagonism). In kind it is cell-based. Particulars: Hepa 1c1c7 cells, AHR inducible (DRE) firefly luciferase reporter, 200 μM kynurenic acid, 20 hours. As for the experimental part:
Transactivation Assay in Mouse Cell Line (In Vitro Assay 2)
Transactivation assay was carried out in Hepa 1c1c7 cells (ATCC #CRL-2026) endogenously expressing AHR. In addition the cells were stably transfected with an AHR inducible firefly luciferase reporter gene construct that carried AHR-binding sites (DRE) in its promoter. Kynurenic acid is an endogenous AHR activating ligand and was used to prestimulate test cells prior to testing the antagonistic properties of compounds.
In Vitro Assay 2: Antagonism in Mouse Cell Line
Firefly luciferase activity was determined by the SteadyGlo Luciferase Assay System (Promega, #E2550).
Background: A reporter such as luciferase makes a cellular process visible.

A further assay concerns the target T2, Human AhR (Homo sapiens, UniProt P35869).
T2 construct: host or cells: U87 glioblastoma cells, stably transfected with DRE-driven firefly luciferase and constitutive renilla reporter constructs
T2 sequence (P35869 11-848): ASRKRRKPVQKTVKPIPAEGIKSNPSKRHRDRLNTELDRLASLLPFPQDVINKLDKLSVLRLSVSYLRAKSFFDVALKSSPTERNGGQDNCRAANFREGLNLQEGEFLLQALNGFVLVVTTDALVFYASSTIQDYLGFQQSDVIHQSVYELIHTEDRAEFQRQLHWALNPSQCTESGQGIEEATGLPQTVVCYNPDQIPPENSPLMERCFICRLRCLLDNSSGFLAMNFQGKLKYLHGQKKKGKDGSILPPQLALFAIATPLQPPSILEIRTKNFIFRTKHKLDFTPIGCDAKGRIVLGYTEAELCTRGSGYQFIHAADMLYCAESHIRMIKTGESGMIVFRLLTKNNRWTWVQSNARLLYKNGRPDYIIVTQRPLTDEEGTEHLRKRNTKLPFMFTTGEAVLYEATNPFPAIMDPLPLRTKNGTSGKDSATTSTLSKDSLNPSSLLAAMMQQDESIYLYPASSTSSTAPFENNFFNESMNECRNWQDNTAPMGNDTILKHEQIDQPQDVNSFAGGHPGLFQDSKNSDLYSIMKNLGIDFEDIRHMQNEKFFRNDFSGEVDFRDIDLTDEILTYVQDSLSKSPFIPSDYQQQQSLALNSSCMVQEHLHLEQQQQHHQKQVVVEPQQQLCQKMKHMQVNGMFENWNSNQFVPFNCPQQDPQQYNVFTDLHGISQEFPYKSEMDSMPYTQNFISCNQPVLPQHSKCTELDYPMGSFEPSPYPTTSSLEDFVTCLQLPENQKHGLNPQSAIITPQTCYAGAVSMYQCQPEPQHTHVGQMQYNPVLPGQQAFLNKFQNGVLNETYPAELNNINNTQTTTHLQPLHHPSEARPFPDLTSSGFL
The assay is described as follows: Transactivation assay in human cell line (in vitro assay 1: antagonism). In kind it is cell-based. Particulars: U87 glioblastoma cells, AHR inducible (DRE) firefly luciferase reporter, 150 μM kynurenic acid, 20 hours. As to the method: Transactivation Assay in Human Cell Line (In Vitro Assay 1)
Transactivation assay was carried out in U87 glioblastoma cells (ATCC) endogenously expressing AHR. In addition the cells were stably transfected with an AHR inducible firefly luciferase reporter gene construct that carried AHR-binding sites (DRE) in its promoter and a renilla reporter gene construct with constitutively active promoter. Kynurenic acid is an endogenous AHR activating ligand and was used to prestimulate test cells prior to testing the antagonistic properties of compounds.
In Vitro Assay 1: Antagonism in Human Cell Line
Firefly luciferase and Renilla activity was determined by the DualGlo Luciferase Assay System (Promega, #2920). Renilla activity was used to assess toxic effects of compounds.

With `Cn1cc(-c2nc(C(=O)N[C@@H]3CC[C@H]3O)cc(-c3ccc(OC(F)(F)F)cc3)n2)cn1` (relative stereo) [Example 86, N-[(trans)-2-hydroxycyclobutyl]-2-(1-methyl-1H-pyrazol-4-yl)-6-[4-(trifluoromethoxy)phenyl]pyrimidine-4-carboxamide], the concentration for half-maximal inhibition (IC50) against Mouse AhR came out at 7.07 nM; against Human AhR it was 5.74 nM.
In the same order, the values of `Cn1cc(-c2nc(C(=O)N[C@H]3CCCC[C@@H]3O)cc(-c3ccc(OC(F)(F)F)cc3)n2)cn1` (relative stereo) [Example 92, N-[(trans)-2-hydroxycyclohexyl]-2-(1-methyl-1H-pyrazol-4-yl)-6-[4-(trifluoromethoxy)phenyl]pyrimidine-4-carboxamide] are 5.79 nM and 4.27 nM.
Regarding `Cn1cc(-c2nc(C(=O)N[C@@H]3CS(=O)(=O)C[C@H]3O)cc(-c3ccc(OC(F)(F)F)cc3)n2)cn1` (relative stereo) [Example 100, N-[(trans)-4-hydroxy-1,1-dioxo-1lambda^6-thiolan-3-yl]-2-(1-methyl-1H-pyrazol-4-yl)-6-[4-(trifluoromethoxy)phenyl]pyrimidine-4-carboxamide], the IC50 against Mouse AhR was 8.18 nM; against Human AhR, 10.1 nM.
In the same order, the values of `Cn1cc(-c2nc(C(=O)N[C@@H]3COC[C@@H]3O)cc(-c3ccc(OC(F)(F)F)cc3)n2)cn1` (relative stereo) [Example 105, N-[(cis)-4-hydroxyoxolan-3-yl]-2-(1-methyl-1H-pyrazol-4-yl)-6-[4-(trifluoromethoxy)phenyl]pyrimidine-4-carboxamide] are 6.01 nM and 8.48 nM.
Consider `Cn1cc(-c2nc(C(=O)N[C@H]3CCC[C@@H]3O)cc(-c3ccc(OC(F)(F)F)cc3)n2)cn1` (stereo in doubt) [Example 87, N-[(trans)-2-hydroxycyclopentyl]-2-(1-methyl-1H-pyrazol-4-yl)-6-[4-(trifluoromethoxy)phenyl]pyrimidine-4-carboxamide], for which the results for the 50% inhibitory concentration (IC50) at Mouse AhR and on Human AhR were 3.93 nM and 5.33 nM, respectively.
On to `Cn1cc(-c2nc(C(=O)N[C@@H]3CCC[C@H]3O)cc(-c3ccc(OC(F)(F)F)cc3)n2)cn1` (stereo in doubt) [Example 96, N-[(trans)-2-hydroxycyclopentyl]-2-(1-methyl-1H-pyrazol-4-yl)-6-[4-(trifluoromethoxy)phenyl]pyrimidine-4-carboxamide], for which the concentration for half-maximal inhibition (IC50) was determined as 56.1 nM against Mouse AhR and 53.2 nM on Human AhR.
The corresponding values for `C[C@@H](CO)NC(=O)c1cc(-c2ccc(OC(F)(F)F)cc2)nc(-c2cccnc2)n1` [Example 1, N-[(2S)-1-hydroxypropan-2-yl]-2-(pyridin-3-yl)-6-[4-(trifluoromethoxy)phenyl]pyrimidine-4-carboxamide] are 2.03 nM and 0.885 nM.
The corresponding values for `C[C@H](CO)NC(=O)c1cc(-c2ccc(OC(F)(F)F)cc2)nc(-c2cccnc2)n1` [Example 2, N-[(2R)-1-hydroxypropan-2-yl]-2-(pyridin-3-yl)-6-[4-(trifluoromethoxy)phenyl]pyrimidine-4-carboxamide] are 20.3 nM and 2.88 nM.
In the same order, the values of `CC(C)(O)CNC(=O)c1cc(-c2ccc(OC(F)(F)F)cc2)nc(-c2cccnc2)n1` [Example 3, N-(2-hydroxy-2-methylpropyl)-2-(pyridin-3-yl)-6-[4-(trifluoromethoxy)phenyl]pyrimidine-4-carboxamide] are 7.81 nM and 3.86 nM.
For the compound `C[C@@H](CO)NC(=O)c1cc(-c2ccc(OC(F)(F)F)cc2)nc(-c2cnn(C)c2)n1` [Example 5, N-[(2S)-1-hydroxypropan-2-yl]-2-(1-methyl-1H-pyrazol-4-yl)-6-[4-(trifluoromethoxy)phenyl]pyrimidine-4-carboxamide], the IC50 against Mouse AhR was 2.92 nM; against Human AhR it was 3.68 nM.
The corresponding values for `Cn1cc(-c2nc(C(=O)NCC(C)(C)O)cc(-c3ccc(OC(F)(F)F)cc3)n2)cn1` [Example 6, N-(2-hydroxy-2-methylpropyl)-2-(1-methyl-1H-pyrazol-4-yl)-6-[4-(trifluoromethoxy)phenyl]pyrimidine-4-carboxamide] are 15 nM and 7.53 nM.
`CC(C)(O)CNC(=O)c1cc(-c2ccc(C(F)(F)F)cc2)nc(-c2cccnc2)n1` [Example 7, N-(2-hydroxy-2-methylpropyl)-2-(pyridin-3-yl)-6-[4-(trifluoromethyl)phenyl]pyrimidine-4-carboxamide] came in with an IC50 against Mouse AhR of 12.7 nM.
In the case of `Cn1cc(-c2nc(C(=O)NCC(C)(C)O)cc(-c3ccc(C(F)(F)F)cc3)n2)cn1` [Example 8, N-(2-hydroxy-2-methylpropyl)-2-(1-methyl-1H-pyrazol-4-yl)-6-[4-(trifluoromethyl)phenyl]pyrimidine-4-carboxamide], the half-inhibitory concentration (IC50) came to 7.19 nM against Mouse AhR and 2.57 nM on Human AhR.
Turning to `COc1ccncc1-c1nc(C(=O)NCC(C)(C)O)cc(-c2ccc(Cl)cc2)n1` [Example 61, 6-(4-chlorophenyl)-N-(2-hydroxy-2-methylpropyl)-2-(4-methoxypyridin-3-yl)pyrimidine-4-carboxamide], at Mouse AhR, the half-maximal inhibitory concentration (IC50) is 4.8 nM.
`Cc1n[nH]cc1-c1nc(C(=O)N[C@@H](C)CO)cc(-c2ccc(Cl)cc2)n1` [Example 82, 6-(4-chlorophenyl)-N-[(2S)-1-hydroxypropan-2-yl]-2-(3-methyl-1H-pyrazol-4-yl)pyrimidine-4-carboxamide]: half-maximal inhibition at Human AhR (IC50) was put at 215 nM.
In the case of `C[C@@H](CO)NC(=O)c1cc(-c2ccc(Cl)cc2)nc(-c2cnc(Cl)nc2)n1` [Example 84, 2′-chloro-6-(4-chlorophenyl)-N-[(2S)-1-hydroxypropan-2-yl][2,5′-bipyrimidine]-4-carboxamide], at Human AhR, half-maximal inhibition (IC50) required 17600 nM.
The compound `Cn1cc(-c2nc(C(=O)NCC3(O)CCC3)cc(-c3ccc(OC(F)(F)F)cc3)n2)cn1` [Example 97, N-[(1-hydroxycyclobutyl)methyl]-2-(1-methyl-1H-pyrazol-4-yl)-6-[4-(trifluoromethoxy)phenyl]pyrimidine-4-carboxamide] gave a half-inhibitory concentration (IC50) against Human AhR of 4.99 nM.
Regarding `CC(C)[C@@H](CO)NC(=O)c1cc(-c2ccc(OC(F)(F)F)cc2)nc(-c2cnn(C)c2)n1` [Example 116, N-[(2S)-1-hydroxy-3-methylbutan-2-yl]-2-(1-methyl-1H-pyrazol-4-yl)-6-[4-(trifluoromethoxy)phenyl]pyrimidine-4-carboxamide], half-maximal inhibition against Mouse AhR (IC50) required 1.97 nM.
Same read-out and setting: then `CC(C)(O)CNC(=O)c1cc(-c2ccc(C(F)F)cc2)nc(-c2cccnc2)n1` [Example 120, 6-[4-(difluoromethyl)phenyl]-N-(2-hydroxy-2-methylpropyl)-2-(pyridin-3-yl)pyrimidine-4-carboxamide], with 10.2 nM.

As a reminder, the IC50 is the concentration that inhibits the measured activity by half. Low values mean inhibition by little substance, high ones a need for much substance.

The record behind these values is patent US11304946B2, “2-hetarylpyrimidine-4-carboxamides as aryl hydrocarbon receptor antagonists” (Bayer Aktiengesellschaft, priority 2017, dated 2022).
